Patent US20180042765A1, “METHODS AND DEVICES FOR TREATING POSTERIOR OCULAR DISORDERS” (CLEARSIDE BIOMEDICAL, INC., priority 2014, published 2018)
“Also recorded” adds a separate entry of the source.

Key:
[1] = test system: patients with non-infectious uveitis; assay: Phase 1/2 open-label safety and tolerability study of TA administered to the suprachoroidal space; assay type: in vivo, human
Method: A clinical trial was designed to evaluate the safety and tolerability of a single injection of TA (triamcinolone acetonide administered as TRIESCENCE™) into the SCS in patients diagnosed with non-infectious uveitis.
Each mL of the sterile, aqueous suspension of TRIESENCE™ provides […] of triamcinolone acetonide, with sodium chloride for isotonicity, 0.5% (w/v) carboxymethylcellulose sodium and 0.015% polysorbate 80. It also contains potassium chloride, calcium chloride (dihydrate), magnesium chloride (hexahydrate), sodium acetate (trihydrate), sodium citrate (dihydrate) and water for injection. Sodium hydroxide and hydrochloric acid may be present to adjust pH to a target value 6-7.5.
The primary purpose of this trial was to evaluate the overall safety and tolerability of treating uveitis patients (non-infectious uveitis—intermediate, posterior or pan-uveitis) by administering a triamcinolone into the SCS via a single suprachoroidal injection. Eligibility criteria include adult patients with non-infectious uveitis experiencing either macular edema or vitreous haze, a common complication of uveitis. This was in order to determine whether SCS administration of TA could improve patient vision through reducing the effects of either condition. For inclusion in the trial, patients must have IOP (intra-ocular pressure) of no greater than 22 mmHg
Each patient enrolled received a single SCS microinjection of 4.0 mg (100 μL) of triamcinolone acetonide of day 1. Patients returned for a follow-up examination on the day after the injection and then for eight additional evaluations at weeks 1, 2, 4, 8, 12, 16, 20 and 26 following the treatment. Patients may receive other treatment at any time during the trial with any accepted therapy based on their physician's best medical judgment, if their condition deteriorates or if the physician otherwise determines it to be advisable. In the event a patient received other treatment, the patient was followed for the duration of the trial for safety purposes, but efficacy measures were no longer considered thereafter.
Patients received the single SCS injection 4 mm posterior to limbus and received an ultrasound assessment of scleral thickness immediately after injection.
Endpoints. The main safety endpoint was changes from baseline in intraocular pressure (TOP). Also assessed was an efficacy endpoint relating to changes in best-corrected visual acuity, or BCVA, as well as changes in excess retinal thickness.

patients = settings: in vivo; cited from earlier work
[2] = test system: porcine model of acute posterior uveitis (intravitreal LPS); assay: Porcine model of acute uveitis: wide-field ocular fundus digital photography; assay type: in vivo, pigs; settings: 72 hours
Method: Twenty four hours after the induction of acute uveitis by intraocular lipopolysaccharide (LPS) injection (Day 0) into the vitreous, 50 μL of balanced salt solution (BSS, Group 1) or triamcinolone (CLS-TA) (2 mg, Group 3) was injected into the suprachoroidal space (SCS). In Groups 2 and 4, oral prednisone (1 mg/kg/day, Group 2 or 0.1 mg/kg/day, Group 4) was dosed on Day 0, and repeated every 24 hours until euthanasia on day 3. Eyes were examined every 24 hours, which included measuring inflammation scores (Modified Hackett-McDonald) and intraocular pressure (TOP) until euthanasia 3 days after initiation of treatment. Safety assessments and histopathology were performed on all eyes. Electroretinography and wide-field fundus photography was performed at -24 hours, time 0 (before treatment) and on Day 3. Histopathology was performed on eyes after euthanasia. Wide-field Ocular Fundus Digital Photography. With the pigs anesthetized at times -24, 0 and 72 hours, and pupils dilated with tropicamide 1%, the ocular fundus was photographed with standardized illumination and focus using a wide-field digital imaging system ([…], Clarity Medical Systems, Pleasanton, Calif.).

[3] = test system: porcine model of acute posterior uveitis (intravitreal LPS); assay: Porcine model of acute uveitis: modified Hackett-McDonald ocular inflammation score; assay type: in vivo, pigs
[4] = test system: porcine model of acute posterior uveitis (intravitreal LPS); assay: Porcine model of acute uveitis: intraocular pressure (TonoVet); assay type: in vivo, pigs; settings: Day 3, low dose 0.1 mg/kg/day PO, P<0.0065
Method: Twenty four hours after the induction of acute uveitis by intraocular lipopolysaccharide (LPS) injection (Day 0) into the vitreous, 50 μL of balanced salt solution (BSS, Group 1) or triamcinolone (CLS-TA) (2 mg, Group 3) was injected into the suprachoroidal space (SCS). In Groups 2 and 4, oral prednisone (1 mg/kg/day, Group 2 or 0.1 mg/kg/day, Group 4) was dosed on Day 0, and repeated every 24 hours until euthanasia on day 3. Eyes were examined every 24 hours, which included measuring inflammation scores (Modified Hackett-McDonald) and intraocular pressure (TOP) until euthanasia 3 days after initiation of treatment. Safety assessments and histopathology were performed on all eyes. Electroretinography and wide-field fundus photography was performed at −24 hours, time 0 (before treatment) and on Day 3. Histopathology was performed on eyes after euthanasia.
Treatment. […]
Intraocular Pressure. Intraocular pressure (TOP) was measured with the pigs awake and hand restrained at −144, −96, −24, 0, 24, 48, and 72 hours (see FIG. 1) using a TonoVet Tonometer (iCare, Finland). […] After the six measurements, the mean IOP was shown on the display providing the IOP that was recorded.
Data and Statistical Analysis. […] Results and probabilities were calculated using computerized statistical software (JMP 10, SAS Inc. Cary, N.C.).

[5] = test system: porcine model of acute posterior uveitis (intravitreal LPS); assay: Porcine model of acute uveitis: ocular histopathology; assay type: in vivo, pigs

SMILES	patients with meaningful improvements in BCVA ([1]; 26 weeks after single SCS injection of TA on Day 1)	gain in BCVA ([1]; 26 weeks after single SCS injection, four of the eight patients)	decrease in retinal thickness (OCT), SCS injection compared to sub-tenon injection ([1]; one patient, bilateral uveitis, 4 mg TA SCS in one eye, 20 mg TA sub-tenon in the other eye)	OCT appearance of eye treated with TA via suprachoroidal injection vs Ozurdex treated eye ([1]; one patient, bilateral uveitis, four to six weeks after treatment)	average reduction in CME ([1]; seven patients, single TA injection into the SCS)	deaths ([1]; single SCS injection 4.0 mg (100 μL) TA, eight patients)	mean reduction in macular edema (retinal thickness) ([1]; week 26, single TA injection into the SCS, seven patients with macular edema)	patients with cataracts and increases in IOP levels (patients)	wide-field fundus images ([2]; high dose 1 mg/kg/day PO)	wide-field fundus images ([2]; low dose 0.1 mg/kg/day PO)	mean cumulative inflammation score compared with Group 1 (BSS) ([3]; Day 3 (72 hours), high dose 1 mg/kg/day PO, P<0.034)	mean cumulative inflammation score compared with saline treated eyes ([3]; any treatment time, low dose 0.1 mg/kg/day PO)	reduction of ocular inflammation relative to low dose prednisone ([3]; high dose 1 mg/kg/day PO)	time to reduction of inflammation ([3]; high dose 1 mg/kg/day PO)	mean IOP compared with the other groups [4]	mean histologic score of the posterior segment compared with low dose oral prednisone (Group 4) ([5]; high dose 1 mg/kg/day PO, P<0.013)	mean histologic score of the anterior segment compared with saline (Group 1) ([5]; oral 0.1 mg/kg/day (Group 4))	mean histologic score of the anterior segment compared with saline (Group 1) ([5]; oral 1 mg/kg/day (Group 2))
CC1(C)O[C@@H]2C[C@H]3[C@@H]4CCC5=CC(=O)C=C[C@]5(C)[C@@]4(F)[C@@H](O)C[C@]3(C)[C@]2(C(=O)CO)O1 [TA, triamcinolone acetonide]	Four of the eight patients	about 3 lines	greater decrease in retinal thickness	looks better than the intravitreally Ozurdex treated eye	about 20%	No deaths	over 100 microns	20-60%										
C[C@]12C=CC(=O)C=C1CC[C@@H]1[C@@H]2C(=O)C[C@@]2(C)[C@H]1CC[C@]2(O)C(=O)CO [prednisone]									near pre-treatment appearance	only slightly improved over vehicle treated eyes	significantly lower	not significantly different than saline treated eyes	more effective than low dose prednisone	three days	significantly lower than Groups 1, 2, and 3; also recorded: significantly lower IOP than all other groups	lower than the mean score of eyes treated with low dose oral prednisone	not significantly different than Group 1	not significantly different than Group 1
